This is an account of results in patent US20230292744A1, “FLYING PEST CONTROL COMPOSITION AND FLYING PEST CONTROL SPRAY” (Kao Corporation, priority 2019, published 2023).

Common to all, as to type: physicochemical
Data set [1] concerns Wings of Aedes albopictus (female). Put plainly: Contact angle against wings of mosquito. The following applies: 0.5 μL of 3 mmol/kg aqueous solution, 25° C., one second after dropping, θ/2 method. An excerpt: Wings of Aedes albopictus (female) were collected, and 8 to 10 pieces of the collected wings were arranged without generating gaps on a double-sided tape (“NITTO TAPE”, manufactured by Nitto Denko Corporation).

The nature of data set [2]: Reach amount of sprayed droplets. The following applies: spray container A, horizontal distance 30 cm, per spraying (five trigger operations). On the procedure: A spray in which a 3 mmol/kg aqueous solution of the wetting agent shown in Table 1 was filled in a spray container A shown in Table 2 was prepared.
In the evaluation method described in the preceding section, one in which instead of the mesh net (3), a paper towel (“Kim Towel White”, manufactured by Nippon Paper Crecia Co., Ltd.) cut into a size of 6 cm×6 cm was stuck to the front face (11) of the frame (1) with a double-sided tape was prepared. Before the evaluation, the total weight of the frame (1) and the paper towel was measured, and then, the spray was fixed at a position where the horizontal distance d until the front face (11) of the frame (1) was 30 cm such that the tip of the spray nozzle (that is, the ejection port) (41) of the spray container (4) reached, and the trigger operation was performed five times toward the inside of the frame (1) to spray the aqueous solution. After spraying, the weights of the frame (1) and the paper towel were measured, and a reach amount of the sprayed droplets per spraying was calculated according to the following calculation equation.
(Reach amount of sprayed droplets (mg/cm^2 per time)={(Weights of frame and paper towel after spraying)−(Weights of frame and paper towel before spraying)}/(Area (36 cm^2) of paper towel)/(Spraying time (five times))
It can be judged that the wetting agent is one in which the larger the reach amount of sprayed droplets, the higher the straightness of the spray droplets when used for the flying pest exterminating composition, and the more excellent the action of capable of efficiently reaching the flying pests.

Data set [3] can be described thus: Surface tension at 25° C. by the Wilhelmy method. The settings on record: 3 mmol/kg aqueous solution of the wetting agent, value 10 minutes after immersion. The source says:
With respect to respective wetting agents described in Table 1, one obtained by dissolving each wetting agent in water to prepare an aqueous solution having a concentration of 3 mmol/kg was used as a measurement sample. With respect to a flying pest exterminating composition described of each of the Examples, the foregoing composition was used as it was as a measurement sample. These measurement samples were each poured into a glass-made Petri dish having a diameter of 6.4 cm and a depth of 3.8 cm, and after removing air bubbles on the water surface, the measurement was performed in the state that the resulting sample was allowed to stand still for 30 minutes or more. In the present measurement, using a surface tension balance “K100” (manufactured by KRÜSS GmbH), a platinum plate was kept immersed in the aforementioned aqueous solution in a depth of 1 mm, and a measured value 10 minutes after the immersion was taken as a value of the surface tension.

For the compound Polyoxyethylene(9) lauryl ether [c], the “Contact angle against wing of mosquito” value in data set [1] turned out to be 64.8 °. Also, the “Reach amount of sprayed droplets of 3 mmol/kg aqueous solution” value (shortened to “Reach amount”) in data set [2] was determined as 2.4 mg/cm^2. Further, in data set [3], the “25° C. surface tension” value worked out at 31.82 mN/m.
As to Polyoxyethylene(3) lauryl ether [i], the “Contact angle against wing of mosquito” value in data set [1] stood at 54.0 °. Moreover, the “Reach amount” value in data set [2] is given as 0.2 mg/cm^2. Further, the “25° C. surface tension” value in data set [3] is on record as 26.13 mN/m.
For `CCCCCCCCCCCCOS(=O)(=O)[O-].[Na+]` [g, Sodium lauryl sulfate], in that order: 111.0 °, 5.7 mg/cm^2 and 29.20 mN/m.
Turning to Polyoxyethylene(12) lauryl ether [d], the “Contact angle against wing of mosquito” value in data set [1] worked out at 71.9 °. In data set [2], the “Reach amount” value was found to be 2.6 mg/cm^2. For the same compound, the “25° C. surface tension” value in data set [3] was determined as 36.09 mN/m.
Turning to Polyoxyethylene(47) lauryl ether [j], the “Contact angle against wing of mosquito” value in data set [1] turned out to be 116.4 °. The “Reach amount” value in data set [2] turned out to be 6.1 mg/cm^2. The “25° C. surface tension” value in data set [3] is 50.54 mN/m.
Turning to Benzalkonium chloride, in data set [1], the “Contact angle against wing of mosquito” value is reported as 80.0 °. The “Reach amount” value in data set [2] worked out at 3.1 mg/cm^2. Also, the “25° C. surface tension” value in data set [3] is 32.68 mN/m.
Regarding C10-C14 alkyl glucoside [b], the “Contact angle against wing of mosquito” value in data set [1] is 55.0 °. Also, in data set [2], the “Reach amount” value amounted to 1.7 mg/cm^2. Moreover, the “25° C. surface tension” value in data set [3] stood at 29.61 mN/m.
As for Polyoxyethylene(19) lauryl ether [f], the “Contact angle against wing of mosquito” value in data set [1] was 113.8 °. Also, the “Reach amount” value in data set [2] turned out to be 3.2 mg/cm^2. Also, the “25° C. surface tension” value in data set [3] was determined as 42.13 mN/m.
Turning to Polyoxyethylene(5) lauryl ether, the “Contact angle against wing of mosquito” value in data set [1] is 38.6 °. Further, the “Reach amount” value in data set [2] is on record as 0.5 mg/cm^2. Moreover, the “25° C. surface tension” value in data set [3] worked out at 27.34 mN/m.
`CCCCC(CC)COCC(O)CO` (stereo not drawn) [e, 2-Ethylhexyl glyceryl ether]: the “Contact angle against wing of mosquito” value in data set [1] is 79.1 °. Besides, the “Reach amount” value in data set [2] was 1.7 mg/cm^2. Besides, in data set [3], the “25° C. surface tension” value was determined as 38.30 mN/m.
